According to patent US4977146A, “2,5-diaryl tetrahydrofurans and analogs thereof as PAF antagonists” (Merck & Co., Inc., priority 1990, dated 1990):

Target: T1, PAF specific receptor binding site on human platelet membranes (Homo sapiens, UniProt P25105)
T1 construct: 100 μg of the platelet plasma membrane suspension; from tissue; host or cells: human platelets (plasma membranes)
Assay: inhibition of the binding of [3H] N-methylcarbamoyl-PAF to human platelet membranes
Conditions: trans configuration, read-out: % inhibitor* (% inhibition of the binding of [3H] N-methylcarbamoyl-PAF to human platelet membranes)
Protocol: The ability of a compound of formula (I) to inhibit the PAF binding to its specific receptor binding site on rabbit or human platelet or PMN plasma membranes was measured by a recently developed assay.
The inhibition of ^3 [H] PAF or ^3 [H]N-methylcarbamoyl-PAF binding to the human or rabbit platelet or PMN plasma membrane by a PAF antagonist of formula (I) was determined by a method employing isotopic labeling and filtration techniques. Generally, a series of Tris-buffered solutions of the selected antagonist at predetermined concentrations were prepared. […] Two control samples, one of which (C1) contains all the ingredients described above except the antagonist and the other (C2) contains C1 plus a 1000-fold excess of unlabeled PAF, were also prepared and incubated simultaneously with the test samples. After the incubation was completed, the contents of each test tube were filtered in vacuo through a Whatman GF/C fiberglass filter and the residue washed rapidly several times with a total of 20 ml cold (0°-5° C.) Tris-buffer solution. Each washed residue was then suspended in 10 ml scintillation solution (Aquasol 2, New England Nuclear, Connecticut) and the radioactivity was counted in a Packard Tri-Carb 460CD Liguid Scintillation System.

T1 sequence (P25105 whole entry): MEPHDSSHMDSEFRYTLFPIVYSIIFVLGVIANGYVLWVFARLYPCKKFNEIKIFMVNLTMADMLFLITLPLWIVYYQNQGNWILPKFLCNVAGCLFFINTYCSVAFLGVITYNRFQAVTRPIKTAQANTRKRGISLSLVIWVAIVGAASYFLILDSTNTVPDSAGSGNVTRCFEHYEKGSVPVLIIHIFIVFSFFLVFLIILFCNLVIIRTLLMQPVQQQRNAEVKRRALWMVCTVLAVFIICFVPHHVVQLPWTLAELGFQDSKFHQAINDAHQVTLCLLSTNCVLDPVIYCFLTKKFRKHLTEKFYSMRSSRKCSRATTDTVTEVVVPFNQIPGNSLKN

Structure (SMILES) | inhibition [%]
CCCOc1c(OCCCN(C)C)cc([C@@H]2CC[C@@H](c3cc(OC)c(OC)c(OC)c3)O2)cc1S(=O)(=O)CC(C)=O (relative stereo) [2-[3-(2-Oxopropylsulfonyl)4-n-propoxy-5-{3-(N,N-dimethylamino)-n-propoxy}phenyl]-5-(3,4,5-trimethoxyphenyl)tetrahydrofuran] | 17
CCCOc1c(OCC(C)=O)cc([C@H]2CC[C@H](c3cc(OC)c(OC)c(OC)c3)O2)cc1S(=O)(=O)CCO (relative stereo) [SO2 CH2 CH2OH / CH2 CH2 CH3 / CH2 COCH3, trans-2-[3-(2-Hydroxyethylsulfonyl)-4-n-propoxy-5-(2-oxo-propoxy)phenyl]-5-(3,4,5-trimethoxy-phenyl)tetrahydrofuran] | 33
CCCOc1c(OCC(C)=O)cc([C@H]2CC[C@H](c3cc(OC)c(OC)c(OC)c3)O2)cc1S(=O)(=O)CC(C)=O (relative stereo) [SO2 CH2 COCH3 / CH2 CH2 CH3 / CH2 COCH3, trans-2-[3-(2-Oxopropyl-sulfonyl)-4-n-propoxy-5-(2-oxopropoxy)phenyl]-5-(3,4,5-trimethoxyphenyl)tetrahydrofuran] | 65
CCCOc1cc([C@H]2CC[C@H](c3cc(OC)c(OC)c(OC)c3)O2)cc(S(=O)(=O)CCN)c1OCCC (relative stereo) [trans-2-[3-(2-Aminoethylsulfonyl)-4,5-dipropoxyphenyl]-5-(3,4,5-trimethoxyphenyl)tetrahydrofuran] | 27
CCCOc1c(OCCCO)cc([C@H]2CC[C@H](c3cc(OC)c(OC)c(OC)c3)O2)cc1S(=O)(=O)CC(C)N (relative stereo) [trans-2-[3-(2-Aminopropylsulfonyl)-4-n-propoxy-5-(3-hydroxypropoxy)phenyl]5-(3,4,5-trimethoxyphenyl)tetrahydrofuran] | 18
CCCOc1c(OCC(C)=O)cc([C@@H]2CC[C@@H](c3cc(OC)c(OC)c(OC)c3)O2)cc1S(=O)(=O)CCN(C)C (relative stereo) [trans-2-[3-(2-N,N-Dimethylaminoethyl-sulfonyl)-4-n-propoxy-5-(2-oxo-propoxyphenyl]-5-(3,4,5-trimethoxyphenyl)tetrahydrofuran] | 31
CCCOc1cc([C@@H]2CC[C@@H](c3cc(OC)c(OC)c(OC)c3)O2)cc(S(=O)(=O)CCN(C)C)c1OCCC (relative stereo) [trans-2-[3-(2-N,N-Dimethylaminoethylsulfonyl)-4,5-di-n-propoxyphenyl]-5-(3,4,5-trimethoxyphenyl)tetrayhydrofuran] | 58
CCCOc1c(OCC(C)O)cc([C@@H]2CC[C@@H](c3cc(OC)c(OC)c(OC)c3)O2)cc1S(=O)(=O)CCN(C)C (relative stereo) [trans-2-[3-(2-N,N-Dimethylaminoethylsulfonyl)-4-n-propoxy-5-(2-hydroxypropoxy)phenyl]-5-(3,4,5-trimethoxyphenyl)tetrahydrofuran] | 14
CCCOc1c(OCCCO)cc([C@@H]2CC[C@@H](c3cc(OC)c(OC)c(OC)c3)O2)cc1S(=O)(=O)CCN(C)C (relative stereo) [trans-2-[3-(2-N,N-Dimethylaminoethylsulfonyl)-4-n-propoxy-5-(3-hydroxypropoxy)phenyl]-5-(3,4,5-trimethoxyphenyl)tetrahydrofuran] | 46
CCCOc1c(OCCCO)cc([C@@H]2CC[C@@H](c3cc(OC)c(OC)c(OC)c3)O2)cc1S(=O)(=O)CC(C)N(C)C (relative stereo) [trans-2-[3-(2-N,N-dimethylaminopropyl-sulfonyl)-4-n-propoxy-5-(3-hydroxypropoxy)phenyl]5-(3,4,5-trimethoxyphenyl)tetrahydrofuran] | 23
CCCOc1cc([C@@H]2CC[C@@H](c3cc(OC)c(OC)c(OC)c3)O2)cc(S(=O)(=O)CCNCC)c1OCCC (relative stereo) [trans-2-[3-(2-N-Ethylaminoethylsulfonyl)-4,5-dipropoxyphenyl]-5-(3,4,5-trimethoxyphenyl)tetrahydrofuran] | 42
CCCOc1c(OCCCO)cc([C@@H]2CC[C@@H](c3cc(OC)c(OC)c(OC)c3)O2)cc1S(=O)(=O)CC(C)NCC (relative stereo) [trans-2-[3-(2-N-Ethylaminopropylsulfonyl)-4-propoxy-5-(3-hydroxypropoxy)phenyl]-5-(3,4,5-trimethoxyphenyl)tetrahydrofuran] | 36
CCCOc1cc([C@@H]2CC[C@@H](c3cc(OC)c(OC)c(OC)c3)O2)cc(S(=O)(=O)CCNC)c1OCCC (relative stereo) [trans-2-[3-(2-N-Methylaminoethylsulfonyl)-4,5-di-n-propoxyphenyl]-5-(3,4,5-trimethoxyphenyl) tetrahydrofuran] | 58
CCCOc1c(OCCCO)cc([C@@H]2CC[C@@H](c3cc(OC)c(OC)c(OC)c3)O2)cc1S(=O)(=O)CC(C)NC (relative stereo) [trans-2-[3-(2-N-Methylaminopropylsulfonyl)-4-n-propoxy-5-(3-hydroxypropoxy)phenyl]-5-(3,4,5-trimethoxyphenyl)tetrahydrofuran] | 38
CCCNCCS(=O)(=O)c1cc([C@@H]2CC[C@@H](c3cc(OC)c(OC)c(OC)c3)O2)cc(OCCC)c1OCCC (relative stereo) [trans-2-[3-(2-N-Propylaminoethylsulfonyl)-4,5-dipropoxyphenyl]-5-(3,4,5-trimethoxyphenyl) tetrahydrofuran] | 33
CCCOc1c(OCC(C)=O)cc([C@H]2CC[C@H](c3cc(OC)c(OC)c(OC)c3)O2)cc1S(=O)(=O)CC(C)O (relative stereo) [trans-2-[3-(2-hydroxypropylsulfonyl)-4-n-propoxy-5-(2-oxopropoxy)phenyl]-5-(3,4,5-trimethoxy-phenyl)tetrahydrofuran] | 52
CCCOc1c(OCCCO)cc([C@H]2CC[C@H](c3cc(OC)c(OC)c(OC)c3)O2)cc1S(=O)(=O)CC(C)O (relative stereo) [trans-2-[3-(2-hydroxypropylsulfonyl)-4-n-propoxy-5-(3-hydroxypropoxy)phenyl]-5-(3,4,5-trimethoxyphenyl)tetrahydrofuran] | 26
